Test results: ChEMBL document CHEMBL4177586, “Small molecule adjuvants that suppress both chromosomal and mcr-1 encoded colistin-resistance and amplify colistin efficacy in polymyxin-susceptible bacteria” (Bioorg Med Chem, 2017)
Values after ≈ are worked out from the molar mass of the structure shown.

Assays:
Acinetobacter baumannii [1] = assay: Potentiation of colistin-induced antimicrobial activity against Acinetobacter baumannii SM1536 expressing mcr1 gene assessed as reduction in colistin MIC at 15 uM incubated for overnight duration by CLSI based method relative to colistin alone control; format: functional
Escherichia coli [2] = assay: Potentiation of colistin-induced antimicrobial activity against Escherichia coli ATCC 25922 expressing mcr1 gene assessed as colistin MIC at 30 uM incubated for overnight duration by CLSI based method (reference value: 8 ug/ml); format: functional
Klebsiella pneumoniae [3] = assay: Potentiation of colistin-induced antimicrobial activity against Klebsiella pneumoniae 2210291 expressing mcr1 gene assessed as colistin MIC at 30 uM incubated for overnight duration by CLSI based method (reference value: 16 ug/ml); format: functional
Acinetobacter baumannii [4] = assay: Potentiation of colistin-induced antimicrobial activity against Acinetobacter baumannii SM1536 assessed as reduction in colistin MIC at 30 uM incubated for overnight duration by CLSI based method relative to colistin alone control; format: functional
Escherichia coli [5] = assay: Potentiation of colistin-induced antimicrobial activity against Escherichia coli YD626 expressing mcr1 gene assessed as colistin MIC at 30 uM incubated for overnight duration by CLSI based method (reference value: 4 ug/ml); format: functional
Acinetobacter baumannii [6] = assay: Potentiation of colistin-induced antimicrobial activity against multidrug resistant Acinetobacter baumannii BAA1605 assessed as minimum drug concentration needed to cause colsitin MIC of 0.125 ug/ml incubated for overnight duration by CLSI based method; format: functional
Acinetobacter baumannii [7] = assay: Potentiation of colistin-induced antimicrobial activity against Acinetobacter baumannii ATCC 17978 assessed as colistin MIC at 30 uM incubated for overnight duration by CLSI based method (reference value: 2 ug/ml); format: functional
Escherichia coli [8] = assay: Potentiation of colistin-induced antimicrobial activity against Escherichia coli ATCC 25922 assessed as colistin MIC at 30 uM incubated for overnight duration by CLSI based method (reference value: […]); format: functional
Escherichia coli [9] = assay: Potentiation of colistin-induced antimicrobial activity against Escherichia coli YD626 expressing mcr1 gene assessed as reduction in colistin MIC at 30 uM incubated for overnight duration by CLSI based method relative to colistin alone control; format: functional
Klebsiella pneumoniae [10] = assay: Toxicity against Klebsiella pneumoniae BAA2146 incubated for overnight duration by CLSI based method; format: organism-based; details: in vivo
Acinetobacter baumannii [11] = assay: Potentiation of colistin-induced antimicrobial activity against Acinetobacter baumannii ATCC 17978 expressing mcr1 gene assessed as reduction in colistin MIC at 30 uM incubated for overnight duration by CLSI based method relative to colistin alone control; format: functional
Escherichia coli [12] = assay: Toxicity against Escherichia coli YD626 incubated for overnight duration by CLSI based method; format: organism-based; details: in vivo
Klebsiella pneumoniae [13] = assay: Potentiation of colistin-induced antimicrobial activity against Klebsiella pneumoniae 2210291 assessed as reduction in colistin MIC at 30 uM incubated for overnight duration by CLSI based method relative to colistin alone control; format: functional
Klebsiella pneumoniae [14] = assay: Potentiation of colistin-induced antimicrobial activity against Klebsiella pneumoniae 2210291 expressing mcr1 gene assessed as colistin MIC at 15 uM incubated for overnight duration by CLSI based method (reference value: 16 ug/ml); format: functional
Klebsiella pneumoniae [15] = assay: Potentiation of colistin-induced antimicrobial activity against Klebsiella pneumoniae 2210291 expressing mcr1 gene assessed as reduction in colistin MIC at 15 uM incubated for overnight duration by CLSI based method relative to colistin alone control; format: functional
Klebsiella pneumoniae [16] = assay: Potentiation of colistin-induced antimicrobial activity against Klebsiella pneumoniae 2210291 assessed as colistin MIC at 30 uM incubated for overnight duration by CLSI based method (reference value: 1 ug/ml); format: functional
Escherichia coli [17] = assay: Toxicity against Escherichia coli ATCC 25922 incubated for overnight duration by CLSI based method; format: organism-based; details: in vivo
Escherichia coli [18] = assay: Potentiation of colistin-induced antimicrobial activity against Escherichia coli ATCC 25922 expressing mcr1 gene assessed as reduction in colistin MIC at 15 uM incubated for overnight duration by CLSI based method relative to colistin alone control; format: functional
Escherichia coli [19] = assay: Potentiation of colistin-induced antimicrobial activity against Escherichia coli ATCC 25922 assessed as reduction in colistin MIC at 30 uM incubated for overnight duration by CLSI based method relative to colistin alone control; format: functional
Klebsiella pneumoniae [20] = assay: Potentiation of colistin-induced antimicrobial activity against multidrug resistant Klebsiella pneumoniae BAA2146 assessed as minimum drug concentration needed to cause colsitin MIC of 0.125 ug/ml incubated for overnight duration by CLSI based method; format: functional
Acinetobacter baumannii [21] = assay: Toxicity against Acinetobacter baumannii ATCC 17978 incubated for overnight duration by CLSI based method; format: organism-based; details: in vivo
Acinetobacter baumannii [22] = assay: Potentiation of colistin-induced antimicrobial activity against Acinetobacter baumannii SM1536 assessed as colistin MIC at 30 uM incubated for overnight duration by CLSI based method (reference value: 2 ug/ml); format: functional
Escherichia coli [23] = assay: Potentiation of colistin-induced antimicrobial activity against Escherichia coli YD626 expressing mcr1 gene assessed as reduction in colistin MIC at 15 uM incubated for overnight duration by CLSI based method relative to colistin alone control; format: functional
Klebsiella pneumoniae [24] = assay: Potentiation of colistin-induced antimicrobial activity against Klebsiella pneumoniae 2210291 expressing mcr1 gene assessed as reduction in colistin MIC at 30 uM incubated for overnight duration by CLSI based method relative to colistin alone control; format: functional
Escherichia coli [25] = assay: Potentiation of colistin-induced antimicrobial activity against Escherichia coli YD626 assessed as reduction in colistin MIC at 30 uM incubated for overnight duration by CLSI based method relative to colistin alone control; format: functional
Acinetobacter baumannii [26] = assay: Toxicity against Acinetobacter baumannii SM1536 incubated for overnight duration by CLSI based method; format: organism-based; details: in vivo
Escherichia coli [27] = assay: Potentiation of colistin-induced antimicrobial activity against Escherichia coli YD626 assessed as colistin MIC at 30 uM incubated for overnight duration by CLSI based method (reference value: 1 ug/ml); format: functional
Acinetobacter baumannii [28] = assay: Potentiation of colistin-induced antimicrobial activity against Acinetobacter baumannii SM1536 expressing mcr1 gene assessed as colistin MIC at 15 uM incubated for overnight duration by CLSI based method (reference value: 64 ug/ml); format: functional
Acinetobacter baumannii [29] = assay: Potentiation of colistin-induced antimicrobial activity against Acinetobacter baumannii SM1536 expressing mcr1 gene assessed as reduction in colistin MIC at 30 uM incubated for overnight duration by CLSI based method relative to colistin alone control; format: functional
Acinetobacter baumannii [30] = assay: Potentiation of colistin-induced antimicrobial activity against Acinetobacter baumannii ATCC 17978 expressing mcr1 gene assessed as colistin MIC at 15 uM incubated for overnight duration by CLSI based method (reference value: 16 ug/ml); format: functional
Acinetobacter baumannii [31] = assay: Potentiation of colistin-induced antimicrobial activity against Acinetobacter baumannii ATCC 17978 expressing mcr1 gene assessed as colistin MIC at 30 uM incubated for overnight duration by CLSI based method (reference value: 16 ug/ml); format: functional
Acinetobacter baumannii [32] = assay: Potentiation of colistin-induced antimicrobial activity against Acinetobacter baumannii SM1536 expressing mcr1 gene assessed as colistin MIC at 30 uM incubated for overnight duration by CLSI based method (reference value: 64 ug/ml); format: functional
Acinetobacter baumannii [33] = assay: Potentiation of colistin-induced antimicrobial activity against Acinetobacter baumannii ATCC 17978 assessed as reduction in colistin MIC at 30 uM incubated for overnight duration by CLSI based method relative to colistin alone control; format: functional

CCCCCCc1ccc(-c2cn(C(C)C)c(N)n2)cc1
fold change (FC) (Acinetobacter baumannii [1]): 4
MIC (Escherichia coli [2]): 0.016 µg/mL
MIC (Klebsiella pneumoniae [3]): 0.5 µg/mL
fold change (FC) (Acinetobacter baumannii [4]): 128
MIC (Escherichia coli [5]): 0.016 µg/mL
MIC (Acinetobacter baumannii [6]): 25 µM
MIC (Acinetobacter baumannii [7]): 0.016 µg/mL
MIC (Escherichia coli [8]): 0.0039 µg/mL
fold change (FC) (Escherichia coli [9]): 256
MIC (Klebsiella pneumoniae [10]): > 200 µM
fold change (FC) (Acinetobacter baumannii [11]): 32
MIC (Escherichia coli [12]): 200 µM (≈ 57.1 µg/mL)
fold change (FC) (Klebsiella pneumoniae [13]): 64
MIC (Klebsiella pneumoniae [14]): 8 µg/mL
fold change (FC) (Klebsiella pneumoniae [15]): 2
MIC (Klebsiella pneumoniae [16]): 0.031 µg/mL
MIC (Escherichia coli [17]): 200 µM (≈ 57.1 µg/mL)
fold change (FC) (Escherichia coli [18]): 0
fold change (FC) (Escherichia coli [19]): 256
MIC (Klebsiella pneumoniae [20]): 20 µM
MIC (Acinetobacter baumannii [21]): 200 µM (≈ 57.1 µg/mL)
MIC (Acinetobacter baumannii [22]): 0.016 µg/mL
fold change (FC) (Escherichia coli [23]): 2
fold change (FC) (Klebsiella pneumoniae [24]): 32
fold change (FC) (Escherichia coli [25]): 2048
MIC (Acinetobacter baumannii [26]): 200 µM (≈ 57.1 µg/mL)
MIC (Escherichia coli [27]): 0.00049 µg/mL
MIC (Acinetobacter baumannii [28]): 8 µg/mL
fold change (FC) (Acinetobacter baumannii [29]): 64
MIC (Acinetobacter baumannii [30]): 4 µg/mL
MIC (Acinetobacter baumannii [31]): 0.5 µg/mL
MIC (Acinetobacter baumannii [32]): 1 µg/mL
fold change (FC) (Acinetobacter baumannii [33]): 128

CCCCCc1ccc(C(=O)NCCn2cc(CCCCCc3cnc(N)n3Cc3ccc(CCCC)cc3)nn2)cc1
fold change (FC) (Acinetobacter baumannii [1]): 8
MIC (Escherichia coli [2]): 0.25 µg/mL
MIC (Klebsiella pneumoniae [3]): 0.25 µg/mL
fold change (FC) (Acinetobacter baumannii [4]): >2048
MIC (Escherichia coli [5]): < 0.002 µg/mL
MIC (Acinetobacter baumannii [6]): 5 µM
MIC (Acinetobacter baumannii [7]): < 0.00098 µg/mL
MIC (Escherichia coli [8]): < 0.00049 µg/mL
fold change (FC) (Escherichia coli [9]): >2048
MIC (Klebsiella pneumoniae [10]): > 200 µM
fold change (FC) (Acinetobacter baumannii [11]): 32
MIC (Escherichia coli [12]): > 200 µM
fold change (FC) (Klebsiella pneumoniae [13]): 64
MIC (Klebsiella pneumoniae [14]): 1 µg/mL
fold change (FC) (Klebsiella pneumoniae [15]): 16
MIC (Klebsiella pneumoniae [16]): 0.016 µg/mL
MIC (Escherichia coli [17]): > 200 µM
fold change (FC) (Escherichia coli [18]): 16
fold change (FC) (Escherichia coli [19]): >2048
MIC (Klebsiella pneumoniae [20]): 10 µM
MIC (Acinetobacter baumannii [21]): > 200 µM
MIC (Acinetobacter baumannii [22]): < 0.00098 µg/mL
fold change (FC) (Escherichia coli [23]): 64
fold change (FC) (Klebsiella pneumoniae [24]): 64
fold change (FC) (Escherichia coli [25]): >2048
MIC (Acinetobacter baumannii [26]): > 200 µM
MIC (Escherichia coli [27]): < 0.00049 µg/mL
MIC (Acinetobacter baumannii [28]): 8 µg/mL
fold change (FC) (Acinetobacter baumannii [29]): 32
MIC (Acinetobacter baumannii [30]): 2 µg/mL
MIC (Acinetobacter baumannii [31]): 0.5 µg/mL
MIC (Acinetobacter baumannii [32]): 2 µg/mL
fold change (FC) (Acinetobacter baumannii [33]): >2048

CCCCCCc1ccc(-c2cn(CC)c(N)n2)cc1
fold change (FC) (Acinetobacter baumannii [1]): 8
MIC (Escherichia coli [2]): < 0.0039 µg/mL
MIC (Klebsiella pneumoniae [3]): 0.125 µg/mL
fold change (FC) (Acinetobacter baumannii [4]): 256
MIC (Escherichia coli [5]): < 0.0019 µg/mL
MIC (Acinetobacter baumannii [6]): 15 µM
MIC (Acinetobacter baumannii [7]): 0.0039 µg/mL
MIC (Escherichia coli [8]): 0.00098 µg/mL
fold change (FC) (Escherichia coli [9]): >2048
MIC (Klebsiella pneumoniae [10]): > 200 µM
fold change (FC) (Acinetobacter baumannii [11]): 32
MIC (Escherichia coli [12]): 200 µM (≈ 54.3 µg/mL)
fold change (FC) (Klebsiella pneumoniae [13]): 32
MIC (Klebsiella pneumoniae [14]): 4 µg/mL
fold change (FC) (Klebsiella pneumoniae [15]): 4
MIC (Klebsiella pneumoniae [16]): 0.031 µg/mL
MIC (Escherichia coli [17]): 200 µM (≈ 54.3 µg/mL)
fold change (FC) (Escherichia coli [18]): 2
fold change (FC) (Escherichia coli [19]): 2048
MIC (Klebsiella pneumoniae [20]): 15 µM
MIC (Acinetobacter baumannii [21]): 100 µM (≈ 27.1 µg/mL)
MIC (Acinetobacter baumannii [22]): 0.0078 µg/mL
fold change (FC) (Escherichia coli [23]): 8
fold change (FC) (Klebsiella pneumoniae [24]): 128
fold change (FC) (Escherichia coli [25]): 2048
MIC (Acinetobacter baumannii [26]): 100 µM (≈ 27.1 µg/mL)
MIC (Escherichia coli [27]): 0.00049 µg/mL
MIC (Acinetobacter baumannii [28]): 8 µg/mL
fold change (FC) (Acinetobacter baumannii [29]): 256
MIC (Acinetobacter baumannii [30]): 4 µg/mL
MIC (Acinetobacter baumannii [31]): 0.5 µg/mL
MIC (Acinetobacter baumannii [32]): 0.25 µg/mL
fold change (FC) (Acinetobacter baumannii [33]): 512
